Experimental data: patent US20240262848A1, “HETEROCYCLIC COMPOUNDS, COMPOSITIONS THEREOF, AND METHODS OF TREATMENT THEREWITH” (BeiGene, Ltd., priority 2022, published 2024)

Columns and labels:
[1] = target: GST-tagged GDP-loaded KRAS G12V (amino acids 1-169) (Homo sapiens, UniProt P01116, G12V); test: KRAS G12V probe displacement assay (TR-FRET); assay type: binding; conditions: Table 4; KRAS G12V 2 nM, biotinylated probe 2 2.5 nM
Experimental: Plates are incubated at 24 °C for 1 hr. […] After 1 hr incubation at 24° C.

[2] = system: pERK1/2(THR202/TYR204) level in SW620 cell line; test: KRAS G12V pERK assay in SW620 cells (HTRF); assay type: cell-based; conditions: Homo sapiens, SW-620, Table 4, 2 hrs compound treatment
Experimental: SW620 cell line was used in this study. Cells were maintained in RPMI 1640 supplemented with 10% fetal bovine serum (Thermo Fisher), 50 units/mL penicillin and streptomycin (Thermo Fisher) and kept at 37° C. in a humidified atmosphere of 5% CO2 in air. Cells were reinstated from frozen stocks that were laid down within 30 passages from the original cells purchased. 40000 cells per well were seeded into a 96-well plate and incubated overnight. Cells were treated with a 10-point dilution series. The final compound concentration is from 0 to 10 μM. After 2 hrs compound treatment, cells were lysed, and the pERK1/2(THR202/TYR204) level in the cell lysates was detected by HTRF kit (Cisbio). In brief, a total of 16 μL of cell lysate from each well of a 96-well plate was transferred to a 384-well white assay plate. Lysate from each well was incubated with 2 μL of Eu3+-cryptate (donor) labeled anti-phospho-ERK1/2 and 2 μL of D)2 (acceptor) labeled anti-phospho-ERK1/2 antibodies (Cisbio) overnight in dark at room temperature. When donor and acceptor are in close proximity, excitation of the donor with laser triggers a Fluorescence Resonance Energy Transfer (FRET) towards the acceptor, which in turn fluoresces at 655 nm wavelength. FRET signals were measured using a PHERAstar FSX reader (BMG Labtech). IC50 determination was performed by fitting the curve of percent inhibition versus the log of the inhibitor concentration using Dotmatics.

Chain of GST-tagged GDP-loaded KRAS G12V (amino acids 1-169) (P01116 1-169 isoform P01116-2 G12V): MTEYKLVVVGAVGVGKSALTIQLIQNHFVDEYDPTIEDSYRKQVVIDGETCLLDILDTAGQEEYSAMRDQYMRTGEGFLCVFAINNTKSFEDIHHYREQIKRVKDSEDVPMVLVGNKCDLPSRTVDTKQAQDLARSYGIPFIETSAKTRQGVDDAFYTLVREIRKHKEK

SMILES: Cc1c(F)c(N)cc(-c2nc3c4c(nc(OC[C@@]56CCCN5C[C@H](F)C6)nc4c2F)N(C)[C@H]2CCOC[C@@H]2O3)c1C(F)(F)F [Example 67, 2-fluoro-5-((7aR,11aS)-4-fluoro-2-(((2R,7aS)-2-fluorotetrahydro-1H-pyrrolizin-7a(5H)-yl)methoxy)-12-methyl-7a, 8,10,11,11a, 12-hexahydro-7,9-dioxa-1,3,6,12-tetraazapleiaden-5-yl)-3-methyl-4-(trifluoromethyl)aniline]
- IC50 [1]: 0.65 nM
- IC50 [2]: 12 nM

SMILES: CN1c2nc(OC[C@@]34CCCN3C[C@H](F)C4)nc3c(F)c(-c4cc(N)cc(Cl)c4C(F)(F)F)nc(c23)O[C@@H]2CCC[C@H](O)[C@H]21 (relative stereo) [Example 47, (7aR*,11S*,11aR*)-5-(5-amino-3-chloro-2-(trifluoromethyl)phenyl)-4-fluoro-2-(((2R,7aS)-2-fluorotetrahydro-1H-pyrrolizin-7a(5H)-yl)methoxy)-12-methyl-7a, 8,10,11,11a, 12-hexahydro-9H-7-oxa-1,3,6,12-tetraazapleiaden-11-ol]
- IC50 [1]: 0.61 nM
- IC50 [2]: 73 nM

SMILES: C#Cc1c(F)ccc2cc(O)cc(-c3cc4c5c(nc(OC[C@@]67CCCN6C[C@H](F)C7)nc5c3F)N(C)CCCO4)c12 [Example 1, 5-ethynyl-6-fluoro-4-(11-fluoro-2-(((2R,7aS)-2-fluorotetrahydro-1H-pyrrolizin-7a(5H)-yl)methoxy)-4-methyl-4,5,6,7-tetrahydro-[1,5]oxazocino[4,3,2-de]quinazolin-10-yl)naphthalen-2-ol]
- IC50 [1]: 3.2 nM
- IC50 [2]: 624 nM

SMILES: CN1c2nc(OC[C@@]34CCCN3C[C@H](F)C4)nc3c(F)c(-c4cc(N)c(F)c(Cl)c4C(F)(F)F)nc(c23)O[C@H]2COCC[C@@H]21 [Example 66, 3-chloro-2-fluoro-5-((7aR,11aS)-4-fluoro-2-(((2R,7aS)-2-fluorotetrahydro-1H-pyrrolizin-7a(5H)-yl)methoxy)-12-methyl-7a, 8,10,11,11a, 12-hexahydro-7,9-dioxa-1,3,6,12-tetraazapleiaden-5-yl)-4-(trifluoromethyl)aniline]
- IC50 [1]: 0.47 nM
- IC50 [2]: 5.8 nM

SMILES: CN1c2nc(OC[C@@]34CCCN3C[C@H](F)C4)nc3c(F)c(-c4cc(N)cc(Cl)c4C(F)(F)F)nc(c23)OC[C@H]2CCC[C@H]21 [Example 52, 3-chloro-5-((8aS,11aR)-4-fluoro-2-(((2R,7aS)-2-fluorotetrahydro-1H-pyrrolizin-7a(5H)-yl)methoxy)-12-methyl-8a, 9,10,11,11a, 12-hexahydro-8H-7-oxa-1,3,6,12-tetraazacyclopenta[5,6]cycloocta[1,2,3-de]naphthalen-5-yl)-4-(trifluoromethyl)aniline]
- IC50 [1]: 6.5 nM
- IC50 [2]: 158 nM

SMILES: CN1c2nc(OC[C@@]34CCCN3C[C@H](F)C4)nc3c(F)c(-c4ccc(F)c5sc(N)c(C#N)c45)c(Cl)c(c23)OCCC12COC2 [Example 28, 2-amino-4-(9′-chloro-11′-fluoro-2′-(((2R,7aS)-2-fluorotetrahydro-1H-pyrrolizin-7a(5H)-yl)methoxy)-4′-methyl-6′,7′-dihydro-4′H-spiro[oxetane-3,5′-[1,5]oxazocino[4,3,2-de]quinazolin]-10′-yl)-7-fluorobenzo[b]thiophene-3-carbonitrile]
- IC50 [1]: 2.5 nM
- IC50 [2]: 206 nM

SMILES: CN1CCOC(C)(COc2nc3c4c(nc(-c5cc(N)cc(Cl)c5C(F)(F)F)c(F)c4n2)O[C@H]2COCC[C@@H]2N3C)C1 (stereo partly drawn) [Example 63, 3-chloro-5-((7aR,11aS)-2-((2,4-dimethylmorpholin-2-yl)methoxy)-4-fluoro-12-methyl-7a, 8,10,11,11a, 12-hexahydro-7,9-dioxa-1,3,6,12-tetraazapleiaden-5-yl)-4-(trifluoromethyl)aniline]
- IC50 [1]: 1.1 nM
- IC50 [2]: 25 nM

SMILES: CN1c2nc(OC[C@@]34CCCN3C[C@H](F)C4)nc3c(F)c(-c4cc(N)cc(Cl)c4C(F)(F)F)nc(c23)O[C@H]2CCCC[C@@H]21 [Example 46, 3-chloro-5-((7aS,11aS)-4-fluoro-2-(((2R,7aS)-2-fluorotetrahydro-1H-pyrrolizin-7a(5H)-yl)methoxy)-12-methyl-7a, 8,10,11,11a, 12-hexahydro-9H-7-oxa-1,3,6,12-tetraazapleiaden-5-yl)-4-(trifluoromethyl)aniline]
- IC50 [1]: 0.48 nM
- IC50 [2]: 37 nM

SMILES: Cc1cc(N)cc(-c2nc3c4c(nc(OC[C@@]56CCCN5C[C@H](F)C6)nc4c2F)N(C)C2(CCO3)CC2)c1C(F)(F)F [Example 53, 3-(4-fluoro-2-(((2R,7aS)-2-fluorotetrahydro-1H-pyrrolizin-7a(5H)-yl)methoxy)-11-methyl-8,9-dihydro-11H-7-oxa-1,3,6,11-tetraazaspiro[cycloocta[de]naphthalene-10,1′-cyclopropan]-1(11a), 2,3a, 3 al(6a), 5-pentaen-5-yl)-5-methyl-4-(trifluoromethyl)aniline]
- IC50 [1]: 0.63 nM
- IC50 [2]: 26 nM

SMILES: CN1c2nc(OC[C@@]34CCCN3C[C@H](F)C4)nc3c(F)c(-c4cc(N)cc(Cl)c4C(F)(F)F)nc(c23)O[C@H]2CCOC[C@@H]21 [Example 50, 3-chloro-5-((7aS,11aS)-4-fluoro-2-(((2R,7aS)-2-fluorotetrahydro-1H-pyrrolizin-7a(5H)-yl)methoxy)-12-methyl-7a, 8,11a, 12-tetrahydro-9H, 11H-7,10-dioxa-1,3,6,12-tetraazapleiaden-5-yl)-4-(trifluoromethyl)aniline]
- IC50 [1]: 0.61 nM
- IC50 [2]: 28 nM

SMILES: CC1COc2nc(-c3cc(N)cc(Cl)c3C(F)(F)F)c(F)c3nc(OC[C@@]45CCCN4C[C@H](F)C5)nc(c23)N1C (stereo partly drawn) [Example 22, 3-chloro-5-(4-fluoro-2-(((2R,7aS)-2-fluorotetrahydro-1H-pyrrolizin-7a(5H)-yl)methoxy)-9,10-dimethyl-9,10-dihydro-8H-7-oxa-1,3,6,10-tetraazacyclohepta[de]naphthalen-5-yl)-4-(trifluoromethyl)aniline]
- IC50 [1]: 6.8 nM
- IC50 [2]: 303 nM

SMILES: Nc1cc(Cl)c(C(F)(F)F)c(-c2nc3c4c(nc(OC[C@@]56CCCN5C[C@H](F)C6)nc4c2F)N(C2CC2)CCCO3)c1 [Example 4, 3-chloro-5-(11-cyclopropyl-4-fluoro-2-(((2R,7aS)-2-fluorotetrahydro-1H-pyrrolizin-7a(5H)-yl)methoxy)-8,9,10,11-tetrahydro-7-oxa-1,3,6,11-tetraazacycloocta[de]naphthalen-5-yl)-4-(trifluoromethyl)aniline]
- IC50 [1]: 8.1 nM
- IC50 [2]: 549 nM

SMILES: CC1COc2nc(-c3cc(N)cc(Cl)c3C(F)(F)F)c(F)c3nc(OC[C@@]45CCCN4C[C@H](F)C5)nc(c23)N(C)C1 (stereo partly drawn) [Example 15, 3-chloro-5-(4-fluoro-2-(((2R,7aS)-2-fluorotetrahydro-1H-pyrrolizin-7a(5H)-yl)methoxy)-9,11-dimethyl-8,9,10,11-tetrahydro-7-oxa-1,3,6,11 tetraazacycloocta[de]naphthalen-5-yl)-4-(trifluoromethyl)aniline]
- IC50 [1]: 8.6 nM
- IC50 [2]: 371 nM

SMILES: CC1CC(C)N(C)c2nc(OC[C@@]34CCCN3C[C@H](F)C4)nc3c(F)c(-c4cc(N)cc(Cl)c4C(F)(F)F)nc(c23)O1 (stereo partly drawn) [Example 21, 3-chloro-5-(4-fluoro-2-(((2R,7aS)-2-fluorotetrahydro-1H-pyrrolizin-7a(5H)-yl)methoxy)-8,10,11-trimethyl-8,9,10,11-tetrahydro-7-oxa-1,3,6,11-tetraazacycloocta[de]naphthalen-5-yl)-4-(trifluoromethyl)aniline]
- IC50 [1]: 1.7 nM
- IC50 [2]: 26 nM

SMILES: CCN1c2nc(OC[C@@]34CCCN3C[C@H](F)C4)nc3c(F)c(-c4cc(N)cc(C)c4C(F)(F)F)nc(c23)O[C@H]2COCC[C@@H]21 [Example 57, 3-((7aR,11aS)-12-ethyl-4-fluoro-2-(((2R,7aS)-2-fluorotetrahydro-1H-pyrrolizin-7a(5H)-yl)methoxy)-7a, 8,10,11,11a, 12-hexahydro-7,9-dioxa-1,3,6,12-tetraazapleiaden-5-yl)-5-methyl-4-(trifluoromethyl)aniline]
- IC50 [1]: 0.83 nM
- IC50 [2]: 41 nM

SMILES: CN1c2nc(OCC3(C)CCC4COCCN4C3)nc3c(F)c(-c4cc(N)cc(Cl)c4C(F)(F)F)nc(c23)O[C@H]2COCC[C@@H]21 (stereo partly drawn) [Example 60, 3-chloro-5-((7aR,11aS)-4-fluoro-12-methyl-2-((7-methyloctahydropyrido[2,1-c][1,4]oxazin-7-yl)methoxy)-7a, 8,10,11,11a, 12-hexahydro-7,9-dioxa-1,3,6,12-tetraazapleiaden-5-yl)-4-(trifluoromethyl)aniline]
- IC50 [1]: 0.63 nM
- IC50 [2]: 20 nM

SMILES: CCc1c(F)ccc2cc(O)cc(-c3nc4c5c(nc(OC[C@@]67CCCN6C[C@H](F)C7)nc5c3F)N(C)C(C)CCO4)c12 (stereo partly drawn) [Example 16, 5-ethyl-6-fluoro-4-(4-fluoro-2-(((2R,7aS)-2-fluorotetrahydro-1H-pyrrolizin-7a(5H)-yl)methoxy)-10,11-dimethyl-8,9,10,11-tetrahydro-7-oxa-1,3,6,11-tetraazacycloocta[de]naphthalen-5-yl)naphthalen-2-ol]
- IC50 [1]: 1.4 nM
- IC50 [2]: 50 nM
